In patent US20190192699A1, “NUCLEAR IMAGING AND RADIOTHERAPEUTICS AGENTS TARGETING CARBONIC ANHYDRASE IX AND USES THEREOF” (THE JOHNS HOPKINS UNIVERSITY, priority 2016, published 2019):
Where “and” joins values, the source holds several entries; their conditions need not be identical. Equal entries are not always repeated. Entries after “also recorded” stand apart in the source; their conditions may differ.

Tests used:
[1] = system: CAIX-expressing SK-RC-52 tumors; experiment: SPECT/CT imaging of [111In]XYIMSR-01; type: in vivo, mice; details: 14.8 MBq (400 μCi) via tail vein
Method: (§1) Cell Lines and Mouse Models. Animal experiments were performed in accordance with protocols approved by the Johns Hopkins Animal Care and Use Committee (ACUC). Six-week-old female NOD/SCID mice were purchased from the Animal Resource Core of the Sidney Kimmel Comprehensive Cancer Center of Johns Hopkins and were subcutaneously injected in the lower left flank or upper right flank with 1×10^6 SK-RC-52 cells in RPMI 1640 GlutaMAX™ media (Life Technologies, Frederick, Md.) supplemented with 1% fetal bovine serum (FBS). Mice were monitored for tumor size and used for SPECT/CT imaging when the size of the tumor reached 100 mm^3.
SPECT/CT imaging of [^111In]XYIMSR-01. Mice harboring subcutaneous SK-RC-52 tumors with the lower left flank were injected with 14.8 MBq (400 μCi) of [^111In]XYIMSR-01 in 250 μL of PBS (pH=7.0) intravenously (tail vein). Anesthesia was then induced with 3% isofluorane and maintained at 2% isoflurane. Physiologic temperature was maintained with an external light source while the mouse was on the gantry. Imaging employed a CT-equipped Gamma Medica-Ideas SPECT scanner (Northridge, Calif.). SPECT data were acquired in 64 projections at 65 s per projection using medium energy pinhole collimators. A CT scan was performed in 512 projections at the end of each SPECT scan for anatomic co-registration. […]

[2] = system: SK-RC-52 xenografts; experiment: Biodistribution of [111In]XYIMSR-01 and [177Lu]XYIMSR-01; type: in vivo, mice
Method: as §1
Biodistribution of [^111In]XYIMSR-01 and [^177Lu]XYIMSR-01. Mice bearing SK-RC-52 xenografts at lower left flank were injected intravenously with 740 kBq (20 μCi) of [^111In]XYIMSR-01, or [^177Lu]XYIMSR-01 in 200 μL of PBS. For competitive blocking, same tumor bearing mice were injected with 740 kBq (20 μCi) of [^111In]XYIMSR-01 and 200 nmole of 1 in 200 μL of PBS. At 1 h, 4 h, 8 h, 24 h and 48 h post-injection, mice were sacrificed by cervical dislocation and the blood was immediately collected by cardiac puncture. Heart, lungs, pancreas, spleen, fat, brain, muscle, small intestines, liver, stomach, kidney, urinary bladder, and tumor were collected. Each organ was weighed and the tissue radioactivity was measured with an automated gamma counter (1282 Compugamma CS, Pharmacia/LKBNuclear, Inc., Mt. Waverly, Vic. Australia). The percentage of injected dose per gram of tissue (% ID/g) was calculated by comparison with samples of a standard dilution of the initial dose. All measurements were corrected for radioactive decay.
Data were expressed as mean±standard deviation (SD). Prism software (GraphPAD, San Diego, Calif.) was used to determine statistical significance. Statistical significance was calculated using a paired t test. P-values […] were considered significant.

[3] = 24 hr + Block (200 nmole of 1 co-injected)
[4] = 48 hr + Block (200 nmole of 1 co-injected)

## CC(CCC(=O)N[C@@H](CC(=O)N[C@@H](CC(=O)N[C@@H](CCCCn1cc(CCCC(=O)Nc2nnc(S(N)(=O)=O)s2)nn1)C(=O)NCCOCCOCCNC(=O)CN1CCN(CC(=O)[O-])CCN(CC(=O)[O-])CCN(CC(=O)[O-])CC1)C(=O)O)C(=O)O)(c1ccc(O)cc1)c1ccc(O)cc1.[111In+3] [[^111In]XYIMSR-01]
[1]
  SPECT/CT tumor imaging finding: radiotracer uptake in tumor as early as 1 h post-injection; also recorded: radiotracer uptake was observed within the tumors at 1 h post-injection; also recorded: enabled specific imaging of CAIX-expressing SK-RC-52 tumors
[2]; 1 hr post-injection
  Biodistribution: Bladder: 4.90 ± 4.96 % ID/g
  Biodistribution: Blood: 1.34 ± 0.17 % ID/g
  Biodistribution: Brain: 1.23 ± 1.10 % ID/g
  Biodistribution: Fat: 1.03 ± 0.24 % ID/g
  Biodistribution: Heart: 5.98 ± 0.53 % ID/g
  Biodistribution: Kidney: 71.26 ± 8.74 % ID/g
  Biodistribution: Liver: 8.36 ± 0.73 % ID/g
  Biodistribution: Lung: 45.85 ± 19.89 % ID/g
  Biodistribution: Muscle: 2.34 ± 2.19 % ID/g
  Biodistribution: Pancreas: 3.81 ± 0.72 % ID/g
  Biodistribution: Small intestine: 9.37 ± 1.26 % ID/g
  Biodistribution: Spleen: 0.52 ± 0.04 % ID/g
  Biodistribution: Stomach: 16.71 ± 2.46 % ID/g
  Biodistribution: Tumor: 26 % ID/g and 26.01 ± 5.74 % ID/g
  Tumor/Blood ratio: 19.7 and 19.7 ± 4.8
  Tumor/Kidney ratio: 0.36 ± 0.06
  Tumor/Muscle ratio: 12.7 and 12.7 ± 5.8
[2]; 4 hr post-injection
  Biodistribution: Bladder: 2.68 ± 1.89 % ID/g
  Biodistribution: Blood: 0.65 ± 0.06 % ID/g
  Biodistribution: Brain: 0.45 ± 0.06 % ID/g
  Biodistribution: Fat: 0.42 ± 0.22 % ID/g
  Biodistribution: Heart: 2.91 ± 0.45 % ID/g
  Biodistribution: Kidney: 41.52 ± 6.07 % ID/g
  Biodistribution: Liver: 4.00 ± 0.8 % ID/g
  Biodistribution: Lung: 17.85 ± 3.55 % ID/g
  Biodistribution: Muscle: 1.01 ± 0.28 % ID/g
  Biodistribution: Pancreas: 1.54 ± 0.40 % ID/g
  Biodistribution: Small intestine: 4.27 ± 0.69 % ID/g
  Biodistribution: Spleen: 0.51 ± 0.08 % ID/g
  Biodistribution: Stomach: 7.91 ± 1.28 % ID/g
  Biodistribution: Tumor: 20.8 % ID/g and 20.83 ± 6.25 % ID/g
  Tumor/Blood ratio: 31.9 ± 9.4
  Tumor/Kidney ratio: 0.50 ± 0.15
  Tumor/Muscle ratio: 21.4 ± 7.2
[2]; 8 hr post-injection
  Biodistribution: Bladder: 2.28 ± 0.51 % ID/g
  Biodistribution: Blood: 0.48 ± 0.02 % ID/g
  Biodistribution: Brain: 0.59 ± 0.09 % ID/g
  Biodistribution: Fat: 0.45 ± 0.08 % ID/g
  Biodistribution: Heart: 2.61 ± 0.35 % ID/g
  Biodistribution: Kidney: 28.79 ± 21.35 % ID/g
  Biodistribution: Liver: 3.65 ± 0.65 % ID/g
  Biodistribution: Lung: 17.39 ± 8.99 % ID/g
  Biodistribution: Muscle: 1.09 ± 0.15 % ID/g
  Biodistribution: Pancreas: 1.61 ± 0.28 % ID/g
  Biodistribution: Small intestine: 4.31 ± 0.67 % ID/g
  Biodistribution: Spleen: 0.64 ± 0.07 % ID/g
  Biodistribution: Stomach: 8.74 ± 1.26 % ID/g
  Biodistribution: Tumor: 34.0 % ID/g and 34.00 ± 15.16 % ID/g
  Tumor/Blood ratio: 77.0 ± 32.5
  Tumor/Kidney ratio: 3.1 ± 3.1
  Tumor/Muscle ratio: 34.2 ± 16.0
[2]; 24 h
  Tumor/liver ratio: 8.5
[2]; 24 h and 48 h post injection
  uptake to tumors with simultaneously injected non-radioactive competitor 1: ~1%
[2]; 24 h post-injection
  tumor/organ ratio, all other organs: ≥ 10
[2]; [3]
  Biodistribution: Bladder: 0.20 ± 0.07 % ID/g
  Biodistribution: Blood: 0.03 ± 0.00 % ID/g
  Biodistribution: Brain: 0.03 ± 0.00 % ID/g
  Biodistribution: Fat: 0.02 ± 0.01 % ID/g
  Biodistribution: Heart: 0.04 ± 0.01 % ID/g
  Biodistribution: Kidney: 0.68 ± 0.14 % ID/g
  Biodistribution: Liver: 0.10 ± 0.02 % ID/g
  Biodistribution: Lung: 0.12 ± 0.02 % ID/g
  Biodistribution: Muscle: 0.02 ± 0.00 % ID/g
  Biodistribution: Pancreas: 0.03 ± 0.00 % ID/g
  Biodistribution: Small intestine: 0.08 ± 0.01 % ID/g
  Biodistribution: Spleen: 0.08 ± 0.01 % ID/g
  Biodistribution: Stomach: 0.14 ± 0.02 % ID/g
  Biodistribution: Tumor: 1.41 ± 0.20 % ID/g
  Tumor/Blood ratio: 45.2 ± 9.7
  Tumor/Kidney ratio: 2.1 ± 0.3
  Tumor/Muscle ratio: 91.4 ± 11.1
[2]; 24 hr post-injection
  Biodistribution: Bladder: 0.74 ± 0.17 % ID/g
  Biodistribution: Blood: 0.15 ± 0.02 % ID/g
  Biodistribution: Brain: 0.71 ± 0.85 % ID/g
  Biodistribution: Fat: 0.28 ± 0.19 % ID/g
  Biodistribution: Heart: 1.16 ± 0.20 % ID/g
  Biodistribution: Kidney: 15.29 ± 1.69 % ID/g
  Biodistribution: Liver: 3.02 ± 3.46 % ID/g
  Biodistribution: Lung: 11.01 ± 3.71 % ID/g
  Biodistribution: Muscle: 0.35 ± 0.12 % ID/g
  Biodistribution: Pancreas: 0.69 ± 0.18 % ID/g
  Biodistribution: Small intestine: 2.11 ± 0.33 % ID/g
  Biodistribution: Spleen: 0.69 ± 0.39 % ID/g
  Biodistribution: Stomach: 3.31 ± 1.25 % ID/g
  Biodistribution: Tumor: 25.6 % ID/g and 25.62 ± 17.67 % ID/g
  Tumor/Blood ratio: 178.1±145.4 and 178
  Tumor/Kidney ratio: 1.7±1.2 and 1.7
  Tumor/Muscle ratio: 68.4±29.0 and 68
[2]; [4]
  Biodistribution: Bladder: 0.14 ± 0.03 % ID/g
  Biodistribution: Blood: 0.03 ± 0.00 % ID/g
  Biodistribution: Brain: 0.03 ± 0.01 % ID/g
  Biodistribution: Fat: 0.03 ± 0.01 % ID/g
  Biodistribution: Heart: 0.04 ± 0.01 % ID/g
  Biodistribution: Kidney: 0.45 ± 0.09 % ID/g
  Biodistribution: Liver: 0.13 ± 0.04 % ID/g
  Biodistribution: Lung: 0.09 ± 0.02 % ID/g
  Biodistribution: Muscle: 0.02 ± 0.00 % ID/g
  Biodistribution: Pancreas: 0.03 ± 0.01 % ID/g
  Biodistribution: Small intestine: 0.08 ± 0.02 % ID/g
  Biodistribution: Spleen: 0.11 ± 0.03 % ID/g
  Biodistribution: Stomach: 0.14 ± 0.03 % ID/g
  Biodistribution: Tumor: 1.22 ± 0.54 % ID/g
  Tumor/Blood ratio: 45.4 ± 13.8
  Tumor/Kidney ratio: 2.7 ± 0.8
  Tumor/Muscle ratio: 75.1 ± 17.7
[2]; 48 hr post-injection
  Biodistribution: Bladder: 0.38 ± 0.18 % ID/g
  Biodistribution: Blood: 0.06 ± 0.02 % ID/g
  Biodistribution: Brain: 0.41 ± 0.05 % ID/g
  Biodistribution: Fat: 0.25 ± 0.08 % ID/g
  Biodistribution: Heart: 0.84 ± 0.16 % ID/g
  Biodistribution: Kidney: 8.78 ± 1.89 % ID/g
  Biodistribution: Liver: 1.65 ± 0.26 % ID/g
  Biodistribution: Lung: 9.22 ± 1.25 % ID/g
  Biodistribution: Muscle: 0.39 ± 0.28 % ID/g
  Biodistribution: Pancreas: 0.59 ± 0.18 % ID/g
  Biodistribution: Small intestine: 1.22 ± 0.44 % ID/g
  Biodistribution: Spleen: 0.67 ± 0.13 % ID/g
  Biodistribution: Stomach: 1.82 ± 0.43 % ID/g
  Biodistribution: Tumor: 13.9 % ID/g and 13.92 ± 6.67 % ID/g
  Tumor/Blood ratio: 212.0 ± 41.4
  Tumor/Kidney ratio: 1.5 ± 0.5
  Tumor/Muscle ratio: 52.0 ± 21.0
